In patent publication US10406217B2, “Antifugetactic agents for the treatment of cancers” (The General Hospital Corporation, priority 2004, dated 2019):
Read-outs that look alike come from different tables or passages of the source. Each block holds one compound with its values, some of them ahead of it.

How the values were obtained:
Protein Kinase C = test: Microfluidic migration assay of neutrophils in linear IL-8 gradients (mean chemotropism index); type: cell-based, Human; conditions: 25 μM pretreatment; IL-8 gradient in which fugetaxis is predominant (600 nM to 1.2 μM); p=0.0001
Excerpt: Human whole blood was obtained from healthy volunteers by venipuncture into tubes-containing sodium heparin (Becton Dickinson, San Jose, Calif.). Neutrophils were isolated by density gradient centrifugation and purified by hypotonic lysis, as previously described (Tager, A. M., et al. 1998. Am J Respir Cell Mol Biol 19:643-52).
The microfluidic linear gradient generators were fabricated in poly(dimethylsiloxane) (PMDS; Sylgard 184, Dow Corning, N.Y.), and gradient generation was verified with fluorescin isothiocyanate (FITC; Sigma-Aldrich), as previously described (Li Jeon, N., et al. 2002. Nat Biotechnol 20:826-30; Whitesides, G. M., et al. 2001. Annu Rev Biomed Eng 3:335-73), […]
Cell movement was tracked using MetaMorph 4.5 (Universal Imaging, Dowington, Pa.) object tracking application, which generated tables of Cartesian coordinate data for each cell. Tracking data was analyzed in Excel (Microsoft, USA) and MATLAB 13 (The Mathworks, Inc., Newton, Mass.) to determine angular frequencies, mean squared displacements, migration velocities, persistence times, random motility coefficients, and random walk path lengths. […] For each cell, the squared displacement R(t) was calculated at time interval t, R^2(t)=(x(t0+t)−x(t0))^2+(y(t0+t)−y(t0))^2, (1) where t0 is the time at the origin. […]

B16/OVA.MSCV tumors = conditions: naïve mice, AMD3100 1.25 mg/kg s.c. twice a day from first day after challenge, average±SD
Procedure: (§1) For in vitro growth, 5×10^5 tumor cells were seeded in T25 flasks (Becton Dickinson, Le Pont De Claix, France). Cultures were harvested daily for 3 consecutive days and viable cell yield determined. Tumorigenicity was determined by subcutaneous (s.c.) injection of 2×10^5 viable cells into the flank of mice in a total volume of 200 μl PBS using a 27 G needle. Tumor growth was also evaluated in naïve mice challenged with B16/OVA.MSCV or B16/OVA.SDF-1-high cells and injected twice a day s.c. with the CXCR4 antagonist. AMDS3100 (1.25 mg/kg s.c., Sigma). Tumor growth was measured every three or four days using a caliper. Tumor volume was recorded as the product of two orthogonal diameters (axb; a=longest diameter; b-orthogonal width) (Hanson, J. L., et al. 2000 Immunity 13:265-276). In immunization studies, mice were injected s.c. (at multiple sites) with 1×10^5 Irradiated (8568 cGy) B16/OVA.pc cells in a volume of 200 μl at d 0 and d 10. Fourteen days after immunization, mice were challenged s.c. in both flanks with 2×10^5 B16/OVA.MSCV B16/OVA.SDF-1 high cells, and tumor growth was measured as described above (Dranoff, G., et al. 1993 Proc Natl Acad Sci USA 90:3539-3543). In some experiments, mice were immunized with B16/OVA.SDF-1-high cells and then challenged with B16/OVA.SDF-1-high or B16/OVA.SDF-1-low cells. Mice were sacrificed when one or both tumors reached 200 mm^2 in volume.

[1] = tested on: B16/OVA.SDF-1-high tumors; conditions: naïve mice, AMD3100 1.25 mg/kg s.c. twice a day, average±SD
Procedure: as §1

CXCR4 [2] = target: T1, CXCR4 (Mus musculus, UniProt P70658); conditions: B16/OVA.MSCV vs B16/OVA.SDF-1-high tumor, OT-I T-cells incubated with AMD3100 0.08 and 0.25 μg/ml before adoptive transfer, MRI 24 hours, mean±SD, n=3
T1 sequence (P70658 whole entry): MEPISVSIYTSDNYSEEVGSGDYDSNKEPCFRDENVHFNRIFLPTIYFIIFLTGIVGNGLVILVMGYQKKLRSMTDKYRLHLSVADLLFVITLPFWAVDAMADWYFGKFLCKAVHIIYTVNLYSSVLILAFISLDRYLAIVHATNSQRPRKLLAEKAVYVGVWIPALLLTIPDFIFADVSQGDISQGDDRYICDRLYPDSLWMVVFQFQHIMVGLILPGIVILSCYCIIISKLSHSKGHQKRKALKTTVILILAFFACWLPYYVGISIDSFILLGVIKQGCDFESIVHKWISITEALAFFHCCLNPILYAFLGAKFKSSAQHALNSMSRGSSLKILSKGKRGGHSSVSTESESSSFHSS
Procedure: (§2) In some experiments, activated OT-I CD8+ T cells were also preincubated with the CXCR4 antagonist, AMD3100, at concentrations of 0.08 and 0.25 μg/ml (15 min at RT) in a 12-well plate at a density of 1×10^7 cells/well prior to adoptive transfer (Hatse, S., et al. 2002, FEBS Lett 527:255). Survival analysis was evaluated in mice after in vivo generation of a tumor-specific memory T cell compartment (Bathe, O. F., et al. 2001, J Immunol 167:4511). 21 days after adoptive transfer of 1×10^7 OT-I CD8+ T cells (in 500 μl of HBSS via tail vein injection), two groups of mice (4 or 6 per group) were challenged s.c. in the right flank with 2×10^5 B 16/OVA.SDF-1-high cells or B16/OVA.MSCV control cells in 200 μl of HBSS using a 27 G needle (Bathe, O. F., et al. 2001, J Immunol 167:4511). […] Detectable tumor was considered to be >5 mm^2. Mice were sacrificed when tumors reached 400 mm^2 in size.

CXCR4 [3] = target: T1, CXCR4; conditions: 48 hours
Procedure: as §2
Immunized mice and mice that received adoptive transfer of OT-I CD8+ T-cells were evaluated for T cell infiltration of tumors by immunohistochemistry. Animals were sacrificed and tumors excised with preservation of the capsule. Resected tumors were fixed in 10% neutral buffered formalin and embedded in paraffin. Serial 5 μm sections of tumors were stained with H & E or with polyclonal anti-CD3 Ab or isotype control Ab, followed by incubation with secondary HRP-labeled anti-rabbit Dako EnVision Ab (DakoCytomation). T-cell infiltration was quantified by counting four random 200× field powers of the turner sections, each […] in area.

CXCR4 [4] = target: T1, CXCR4; conditions: OT-I preincubated with AMD3100 5 μg/ml; flat-bottom wells; SIINFEKL-pulsed targets; ±SEM
Procedure: Cytotoxicity of OT-I CD8+ cells was measured in a standard ^51Cr-release assay in round-bottom, wells as previously described (Brainard, D. M, et al. 2004. J Virol 78:5184-5193). The assay was also modified and performed in flat-bottom wells in order to determine the effects of CTL migration on killing efficacy in the context of target cells expressing SDF-1 (Hahne, M., et al. 1996 Science 274:1363-1366). B16/OVA.MSCV or B16/OVA.SDF1-high target cells were labeled with 100 μCi of ^51CR per 10^6 cells for 1 hour at 37° C. […] 30 μl of supernatant were harvested, and the radioactivity was counted in a γ-radiation counter. Cytotoxicity was expressed either as percent of lysis or as Lytic Unit 30 (LU30) as previously described (Brainard, D. M., et al. 2004. J Virol 78:5184-5193, Bryant, J., et al. 1992. J Immunol Meth 146:91-103). ^51Cr release assays were also performed in flat-bottom cells after preincubation of OT-I CD8+ T cells with the CXCR4 antagonist AMD3100 at concentrations of 0.25 and 1 μg/ml (Hatse, S. 2002 FEBS LETT 527:255-262).

CXCR4 [5] = target: T1, CXCR4
Excerpt: Pregnant females at day 15.5 of gestation were sacrificed by CO2 asphyxiation, and embryos were chilled on ice. Fetal thymuses were carefully removed under a dissecting microscope, taking care to keep the anatomically identifiable lobes joined together. Thymuses were placed in HBSS and kept on ice. Individual thymuses were gently transferred onto the surface of a polycarbonate membrane of a 6.5 mm transwell insert with a 3.3 μm pore size (Corning Incorporated Life Sciences Action, Mass.). DMEM (360 μl) supplemented with 2 mM glutamine, 100 U/ml penicillin, 100 μg/ml streptomycin, 2×10^5 M 2-mercaptoethanol, 0.1 mM non-essential amino acids, 10% HEPES, and 10% FBS (Sigma) was added to the lower chamber of the transwell. This amount of medium allowed the thymus to be at the interface of medium and air. The cultures were incubated at 37° C., in 5% CO2, and medium was replaced every 3 days. Thymic emigrants, were collected from each thymus by transferring each transwell insert containing one thymus onto to a new well 24 hours before harvesting emigrant present in the lower chamber for analysis. On the day of analysis, two thymuses were harvested, and emigrants were pooled from at least 4 thymic lobes from CXCR4^+/− CXCR4^−/− mice. For each time-point, CXCR4^+/− and CXCR4^−/− thymuses from one or two pregnant females bred at the same time were analyzed, aiming to minimize differences in the stage of maturation and total cell recovery. E15.5 WT (CXCR4^+/+) thymuses were obtained from fetuses from C57BL/16 mice breedings. […] FTOC from DPC 15.5 CXCR4+/− or CXCR4−/−embryos were also prepared as above, and AMD3100 (0.5 or 1 gg/ml; Sigma) was added to the lower chamber of day 14 FTOC.
Thymic lobes were harvested and transferred to a 4-ml round bottom polystyrene tube containing 0.4 mg/ml collagenase (from Clostridium histolyticum, type V, clostridiopeptidase A, SIGMA Chemicals), 10% FBS, EDTA0.2 mg/ml and 0.2 M phosphate. After 30 minutes incubation at 37° C., thymuses were disaggregated by gentle pipetting until no visible fragments remained. Cell suspensions were washed once in HBSS and 10% FBS to prevent further enzyme action. Cells were resuspended in PBS containing 0.1% bovine serum albumin and counted using a hemocytometer. After incubation for 30 minutes on ice with 0.5 gg of 2.4G2 antibody to block Fc binding, direct staining for three or four color analysis was performed. Cell suspensions were incubated for 15 minutes at 4° C. and then washed twice with staining buffer and analyzed using a FACSCalibur (BD Biosciences). Data analysis was performed with FlowJo software (Tree Star, Inc. Ashland, Oreg.). […] For annexin V and PI staining, an Annexin V-FITC Apoptosis Detection Kit I was used (BD Pharmingen). […] Mean log fluorescence intensity (MFI) values were obtained by subtracting the MFI of the isotype control from the MFI of the positively stained sample. To evaluate whether the differences between the peaks of cells were statistically significant with respect to controls, the Kolmogorov-Smirnov test for analysis of histograms was used.

CXCR4 [6] = target: T1, CXCR4; conditions: T-cells pre-incubated with 5 μg/ml AMD3100 for 30 min; 15 hours incubation
Procedure: The CXCR4 receptor was blocked by pre-incubation of T-cells with 5 μg/ml AMD3100 (Sigma, St. Louis, Mo.) for 30 min at 37° C. as previously described (70). Trajectories of migration were determined for randomly selected T-cells using Metamorph software. Cell path tracking and mean chemotropic indices (MCI) as a measurement of directionality of movement towards or away from β-TC3 cells were calculated using MetaMorph and MatLab software as previously described where an MCI of +0.1 to −0.1 indicates chemokinesis, >+0.1 indicates chemotaxis and <−0.1 indicates fugetaxis (Moghe, P. V., et al. 1995 J Immunol Methods 180, 193-211; McCutcheon, M. (1946) Physiological Reviews 26, 319).

CXCR4 [7] = target: T1, CXCR4; conditions: Matthys et al. 2001; cited from earlier work
[8] = tested on: Primary human neutrophils; test: Calcium flux in neutrophils in response to IL-8 (Fura-2); type: cell-based; conditions: calibrated against 5 μM ionomycin
Procedure: (§3) Calcium flux in neutrophils in response to IL-8 was measured as previously described (Mahon M. J., et al. 2004 J Biol Chem 279:23550-8). Briefly, isolated cells (˜10^7/ml) were transferred into a balanced salt solution (127 mM NaCl, 3.8 mM KCl, 1.2 mM KH2PO4, 1.2 mM CaCl2, 0.9 mM MgCl2, 5 mM glucose, and 10 mM HEPES, pH 7.4), incubated for 45 min at room temperature with 1.25 μM Fura-2 acetoxymethyl ester (Molecular Probes, Eugene, Oreg.), washed with the balanced salt solution, and unloaded for 15 min at room temperature. […] Calcium flux in response to indicated concentrations of IL-8 (Akahoshi T., et al. 1994 Lymphokine Cytokine Res 13:113-6) was measured by fluorescence of cells excited at 340 and 380 nm using a PTI Deltascan dual-wavelength fluorimeter (Photon Technologies Incorporated, Lawrenceville, N.J.), observed through a Nikon Diaphot 200 microscope (Melville, N.Y.) and Sensys charge-coupled device camera (Photometrics, Ltd., Tucson, Ariz.), and analyzed using the Poenie-Tsien ratio with Imagemaster 2 software (Photon Technologies Incorporated). Signaling responses to IL-8 at designated concentrations were calibrated against maximal calcium flux as determined by treatment with 5 μM ionomycin (Sigma). CXCR2 expression on neutrophils pre- and post-exposure to 120 nM, 1.2 μM and 2.4 μM IL-8 was determined using PE-labelled anti-CXCR2 IgGl antibody (R & D systems). […]

CXCR2 = CXCR2 staining of neutrophils following IL-8 exposure; type: cell-based, Human; conditions: single pulse of IL-8 at 12 nM, 120 nM, 1.2 μM and 2.4 μM; data not shown
Procedure: as §3

[9] = OT-I CD8+ T-cells incubated with 0.08 μg/ml AMD3100 before adoptive transfer
[10] = OT-I CD8+ T-cells incubated with 0.25 μg/ml AMD3100 before adoptive transfer

Compound: CN(C)CCCn1cc(C2=C(c3c[nH]c4ccccc34)C(=O)NC2=O)c2ccccc21 [GF 109230X]
effect on neutrophil fugetaxis in IL-8 gradient (Protein Kinase C): selectively inhibited fugetaxis and converted a fugetactic response into a predominantly chemoattraction response

ratio of T2 fit value in the right and left tumors (CXCR4 [2]): 1+0.12
ratio of T2 fit value in the right and left tumors (CXCR4 [2]; listed as AM3100): 0.55±0.13
CD3+ T-cell infiltration into B16/OVA.SDF-1-high tumors (CXCR4 [3]; [9]): 101±10.6 cells/mm^2
number of T-cells infiltrating B16/OVA.MSCV tumors (CXCR4 [3]; [9]): 109±3.2 cells/mm^2
CD3+ T-cell infiltration into B16/OVA.SDF-1-high tumors (CXCR4 [3]; [10]): 88.1±16.9 cells/mm^2
number of T-cells infiltrating B16/OVA.MSCV tumors (CXCR4 [3]; [10]): 93±14.8 cells/mm^2
total number of cells in the thymus (CXCR4 [5]; day 14 FTOC incubated 24 hours with 1 μg/ml AMD3100): 349±99.5 ×10^3/lobe
SP CD4 thymocytes emigrating from thymus (CXCR4 [5]; day 14 FTOC, 24 hours with 1 μg/ml AMD3100, mean±SEM): 1.1±0.15 ×10^3/love
CD62L expression by SP CD8 thymocytes (CXCR4 [5]; day 14 FTOC, 24 hours with 1 μg/ml AMD3100, p=0.56): not affected
total number of SP CD8 emigrants vs untreated FTOC (CXCR4 [5]; day 14 FTOC, 24 hours with 1 μg/ml AMD3100, p=0.93): did not differ
Compound: c1cc(CN2CCCNCCNCCCNCC2)ccc1CN1CCCNCCNCCCNCC1 [AMD3100]
average time to tumor growth to a size of 200 mm^2 (B16/OVA.MSCV tumors): 22 ± 2 days
time for tumor growth to 200 mm^2 [1]: 23.6 ± 2.08 days
LU30, killing of B16/OVA.SDF-1-high cells by OT-I CD8+ T-cells (CXCR4 [4]): 77×10^6±15
CD62L^high CD4 SP cells in the thymus vs untreated (CXCR4 [5]; day 14 FTOC, 24 hours with 1 μg/ml AMD3100, p=0.017): retention of CD62L^high CD4 SP cells in the thymus
T-cell migration away from SDF-1 secreting MSCV.SDF-1 bright cells (CXCR4 [6]): failed to migrate away from SDF-1 secreting cells
intracellular Ca+ flux and chemotactic responses of murine splenocytes to SDF1 (CXCR4 [7]): inhibit

Compound: IL-8: human Interleukin-8 (72 amino acids; PeproTech), chemokine
Peak calcium flux response (percentage of maximal calcium flux) ([8]; 120 nM IL-8): 48%+/−5.1
Peak calcium flux response (percentage of maximal calcium flux) ([8]; 1.20 μM IL-8): 83%+/−7.9
reduction of CXCR2 mean fluorescent intensity from baseline (CXCR2): 2- to 3 fold
